Reference: patent US7790727B2, “Benzenesulfonanilide compounds suitable for treating disorders that respond to modulation of the serotonin 5-HT6 receptor” (Abbott GmbH & Co. KG, priority 2007, dated 2010)
Where a name gives a salt, the structure may show the parent alone. Read-outs that look alike come from different tables or passages of the source.

How the values were obtained:
h-5-HT6 receptor = molecular target: T1, h-5-HT6 receptor (Homo sapiens, UniProt P50406); assay: 5-HT6 receptor binding assay (displacement of [3H]-LSD)
T1 construct: expressed in transfected cells
Protocol: Displacement of radioligands binding to the following cloned human receptors
(§1) 1. Preparation of Membranes by Ultrasonic Treatment and Differential Centrifugation
Cells from stable clonal cell lines expressing the corresponding receptor (5-HT6, α1-adrenergic, dopamine D2 or histamine H1 receptors) were washed with PBS (w/o Ca^++, Mg^++) and harvested in PBS with 0.02% EDTA. The cells were collected by centrifugation at 500 g for 10 min. at 4° C., washed with PBS and centrifuged (500 g, 10 min. 4° C.). The pellets were stored at −80° C. until use. F or membrane preparation, the thawed cell pellet was resuspended in ice-cold sucrose buffer (0.25 M sucrose, 10 mM Hepes (pH 7.4), 1 mM Phenylmethylsulfonyl fluoride (PMSF) in DMSO, 5 μg/ml Pepstatin-A, 3 mM EDTA, 0.025% Bacitracin) and homogenized with a Branson Sonifier W-250 (Settings: Timer 4; Output Control 3; Duty Cycle constant; 2 to 3 cycles). Cell disruption was checked with the aid of a microscope. Remaining unbroken cells were pelleted at 1.000 g for 10 min. at 4° C. The sucrose buffer supernatant was then centrifuged at 60.000 g for 1 h at 4° C. (Beckman Ultrazentrifuge XL 80). The pellet was resuspended in 30 ml ice-cold Tris buffer (20 mM TRIS (pH 7.4), 5 μg/ml Pepstatin A, 0.1 mM PMSF, 3 mM EDTA) by pipetting through a 10 ml serological pipet and centrifuged for 1 h at 4° C. at 60.000 g. A final resuspension was performed in a small volume of ice-cold Tris buffer (see above) by pressing through a serological pipet followed by ultrasonic treatment with a Branson Sonifier W-250 (Settings: Timer 1; Output Control 3; Duty Cycle constant; 1 cycle). Protein concentration was determined (BCA-Kit; Pierce) and aliquots stored at −80° C. or in liquid nitrogen for long-term storage.
(§2) 2. Receptor Binding Experiments
All receptor binding experiments were carried out in the corresponding assay buffer in a total volume of 200 μl in the presence of various concentrations of test compound (10^−5 M to 10^−9 M, tenfold serial dilution, duplicate determinations). The assays were terminated by filtration on polyethylenimine (PEI 0.1% or 0.3%) presoaked Packard Unifilter Plates (GF/C or GF/B) with a Tomtec Machill U 96 well-plate harvester. After the plates had been dried for 2 h at 55° C. in a drying chamber scin tillation cocktail (BetaPlate Scint; PerkinElmer) was added. Radioactivity was measured in a Microbeta Trilux two hours after the addition of the scintillation mixture. Data derived from liquid scintillation counting were analysed by iterative non-linear regression analysis with the use of the Statistical Analysis System (SAS): a program similar to “LIGAND” as described by Munson and Rodbard (Analytical Biochemistry 107, 220-239 (1980).
a) 5-HT6 Receptor Binding Assay
HEK293 cells stably expressing the h-5-HT6 receptor (NCBI Reference Sequence XM 001435) were cultured in RPMI1640 medium supplemented with 25 mM HEPES, 10% fetal calf serum and 1-2 mM glutamine. The membrane preparation was performed as described in section 1. […] Non-specific binding was defined with 1 μM methiothepin. The binding reaction was carried out for 3.5 h at room temperature. During the incubation, the plates were shaken on a plate shaker at 100 rpm and terminated by filtration on Packard Unifilter GF/C (0.1% PEI) plates, followed by 2 wash cycles with ice-cold 50 mM Tris-HCl, 5 mM CaCl2.
Data derived from liquid scintillation counting were analyzed by iterative non-linear regression analysis with the use of the Statistical Analysis System (SAS): a program similar to “LIGAND” as described by Munson and Rodbard (Anal. Biochem. 1980, 107, 220-239). Fitting was performed according to formulae described by Feldman (Anal. Biochem. 1972, 48, 317-338). IC50, nH and Ki values were expressed as geometrical mean.

dopamine D2 receptor = molecular target: T2, dopamine D2 receptor (Homo sapiens, UniProt P14416); assay: Dopamine D2 receptor binding assay (displacement of [125I]-iodospiperone); conditions: dopamine D2 receptor membranes, HEK293; read-out: KD of radioligand (saturation binding experiments)
T2 construct: expressed in transfected cells
Protocol: as §1
The pellets were stored at −80° C. until use. […] (Beckman Ultrazentrifuge XL 80).
as §2
a) Dopamine D2 Receptor Binding Assay
Non-specific binding was defined with 1 μM haloperidol.

[1] = membranes of HEK293 cells expressing h-5-HT6 receptor, 1 nM [3H]-LSD, read-out: Ki(5HT6)

T1 sequence (P50406 whole entry): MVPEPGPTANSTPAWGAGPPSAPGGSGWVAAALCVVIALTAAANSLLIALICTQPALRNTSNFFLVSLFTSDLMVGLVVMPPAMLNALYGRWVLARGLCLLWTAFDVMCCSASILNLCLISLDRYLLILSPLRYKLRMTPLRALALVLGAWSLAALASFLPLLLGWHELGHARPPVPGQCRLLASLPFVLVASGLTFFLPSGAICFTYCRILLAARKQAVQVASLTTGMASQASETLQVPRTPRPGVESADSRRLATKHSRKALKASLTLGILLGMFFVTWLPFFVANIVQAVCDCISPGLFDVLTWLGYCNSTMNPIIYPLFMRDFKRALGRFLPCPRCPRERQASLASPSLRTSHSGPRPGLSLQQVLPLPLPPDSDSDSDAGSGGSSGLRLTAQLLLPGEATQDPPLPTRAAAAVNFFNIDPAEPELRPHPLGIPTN
T2 sequence (P14416 whole entry): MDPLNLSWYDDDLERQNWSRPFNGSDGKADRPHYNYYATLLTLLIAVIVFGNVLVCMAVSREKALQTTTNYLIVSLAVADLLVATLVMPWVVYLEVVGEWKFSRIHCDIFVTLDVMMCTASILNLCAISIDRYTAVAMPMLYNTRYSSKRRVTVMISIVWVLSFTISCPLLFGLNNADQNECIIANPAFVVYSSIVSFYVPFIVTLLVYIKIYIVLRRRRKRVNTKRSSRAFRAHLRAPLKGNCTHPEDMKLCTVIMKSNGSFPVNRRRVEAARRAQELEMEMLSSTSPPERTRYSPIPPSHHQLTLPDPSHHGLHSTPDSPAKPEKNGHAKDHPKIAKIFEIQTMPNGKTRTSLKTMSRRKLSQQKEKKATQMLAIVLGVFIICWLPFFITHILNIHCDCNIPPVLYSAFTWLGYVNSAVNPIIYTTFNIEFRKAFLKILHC

Row | Compound | Ki (h-5-HT6 receptor; [1]) [nM] | also measured
1 | O=S(=O)(Nc1cccc(N2CCNCC2)c1)c1cccc2c1OC(F)(F)O2 [Example 29, 2,2-Difluoro-benzo[1,3]dioxole-4-sulfonic acid (3-piperazin-1-yl-phenyl)-amide Hydrochloride] | < 10 | –
2 | O=S(=O)(Nc1cccc(N2CCNCC2)c1)c1ccccc1OC(F)F [Example 30, 2-Difluoromethoxy-N-(3-piperazin-1-yl-phenyl)-benzenesulfonamide Trifluoroacetate] | – | Ki (h-5-HT6 receptor): < 10 nM
3 | COc1ccc(S(=O)(=O)Nc2cccc(N3CCNCC3)c2)cc1OC(F)F [Example 31, 3-Difluoromethoxy-4-methoxy-N-(3-piperazin-1-yl-phenyl)-benzenesulfonamide Trifluoroacetate] | < 50 | –
4 | iodospiperone [[^125I]-iodospiperone] | – | Kd (dopamine D2 receptor): 0.22 nM
